This note sets out measurements from ChEMBL document CHEMBL1139537, “Examination of phosphoryl-mimicking functionalities within a macrocyclic Grb2 SH2 domain-binding platform” (J Med Chem, 2005).

SMILES strings stand for the structures. Bounds are passed on as bounds.

For assay [1], the target named is T1, Growth factor receptor-bound protein 2 (Homo sapiens, UniProt P62993). Put plainly: Dissociation constant value against growth factor receptor bound protein 2.
Target sequence in this assay (P62993 whole entry): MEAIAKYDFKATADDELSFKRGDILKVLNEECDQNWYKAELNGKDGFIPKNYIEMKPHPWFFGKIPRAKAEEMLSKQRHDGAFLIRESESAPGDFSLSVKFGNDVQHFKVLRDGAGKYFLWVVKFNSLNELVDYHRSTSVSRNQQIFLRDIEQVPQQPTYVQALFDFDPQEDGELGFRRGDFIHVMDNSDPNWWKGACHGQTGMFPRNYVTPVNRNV
For assay [2], the target named is T1, Growth factor receptor-bound protein 2. Kind of assay: Inhibitory concentration against growth factor receptor bound protein 2.
Target sequence in this assay (P62993 whole entry): as above
For assay [3] the target is unchanged. Put plainly: Binding off-rate against growth factor receptor bound protein 2.
Target sequence in this assay (P62993 whole entry): as above
Assay [4] has the same target. Kind of assay: Binding on-rate against growth factor receptor bound protein 2.
Target sequence in this assay (P62993 whole entry, looked up): as the sequence (P62993 whole entry) above

The term Kd denotes a measure of binding affinity in units of concentration. For the molecule `Cc1ccc2c(ccn2C[C@@H]2C/C=C/[C@H](c3ccc(O)cc3)[C@H](CC(=O)O)C(=O)NC3(CCCCC3)C(=O)N[C@@H](CC(N)=O)C(=O)NC2)c1`, the Kd in assay [1] is over 1000 nM.
Still for that read-out and setting: then `Cc1ccc2c(ccn2C[C@@H]2C/C=C/[C@H](c3ccc([N+](=O)[O-])cc3)[C@H](CC(=O)O)C(=O)NC3(CCCCC3)C(=O)N[C@@H](CC(N)=O)C(=O)NC2)c1`, with over 1000 nM.
The term IC50 denotes the concentration that gives 50% inhibition. One may read the koff as the first-order rate constant of dissociation. Molecule `Cc1ccc2c(ccn2C[C@@H]2C/C=C/[C@H](c3ccc(C(C(=O)O)C(=O)O)cc3)[C@H](CC(=O)O)C(=O)NC3(CCCCC3)C(=O)N[C@@H](CC(N)=O)C(=O)NC2)c1` had a concentration for half-maximal inhibition (IC50) in assay [2] of 3.3 nM. Moreover, the koff in assay [3] was 0.0227 s⁻¹. Also, the Kd in assay [1] turned out to be 3.62 nM.
`Cc1ccc2c(ccn2C[C@@H]2C/C=C/[C@H](c3ccc(CC(=O)O)cc3)[C@H](CC(=O)O)C(=O)NC3(CCCCC3)C(=O)N[C@@H](CC(N)=O)C(=O)NC2)c1`: the IC50 in assay [2] amounted to 22.5 nM. Further, the dissociation rate constant (koff) in assay [3] amounted to 0.0101 s⁻¹. In addition, binding in assay [1] was put at a Kd of 33 nM.
In the case of `Cc1ccc2c(ccn2C[C@@H]2C/C=C/[C@H](c3ccc(CP(=O)(O)Cc4ccccc4)cc3)[C@H](CC(=O)O)C(=O)NC3(CCCCC3)C(=O)N[C@@H](CC(N)=O)C(=O)NC2)c1`, it took 8.4 nM to reach half-maximal inhibition in assay [2] (IC50). Also, in assay [3], the koff came out at 0.00512 s⁻¹. Further, binding in assay [1] was put at a Kd of 35.3 nM.
Regarding `Cc1ccc2c(ccn2C[C@@H]2C/C=C/[C@H](c3ccc(NC(=O)C(=O)O)cc3)[C@H](CC(=O)O)C(=O)NC3(CCCCC3)C(=O)N[C@@H](CC(N)=O)C(=O)NC2)c1`, the IC50 in assay [2] is 8.8 nM. Besides, the koff in assay [3] was found to be 0.0508 s⁻¹. This molecule returned a Kd in assay [1] of 67 nM.
On to `Cc1ccc2c(ccn2C[C@@H]2C/C=C/[C@H](c3ccc(CP(C)(=O)O)cc3)[C@H](CC(=O)O)C(=O)NC3(CCCCC3)C(=O)N[C@@H](CC(N)=O)C(=O)NC2)c1`, for which the IC50 in assay [2] came to 6.3 nM. The koff in assay [3] was determined as 0.00988 s⁻¹. Moreover, binding in assay [1] was put at a Kd of 16.2 nM.
On to `Cc1ccc2c(ccn2C[C@@H]2C/C=C/[C@H](c3ccc(CP(=O)(O)O)cc3)[C@H](CC(=O)O)C(=O)NC3(CCCCC3)C(=O)N[C@@H](CC(N)=O)C(=O)NC2)c1`, for which the Ka in assay [4] stood at 5.46e+06 M⁻¹ s⁻¹. In assay [2], the IC50 was determined as 15 nM. This molecule also yielded a koff in assay [3] of 0.00801 s⁻¹. The molecule further returned a Kd in assay [1] of 1.47 nM.
